According to patent US20240277713A1 (Kadmon Corporation, LLC, priority 2022, published 2024):
Marks after values point to notes of the source that are not given here.

Tests used:
Sprague-Dawley rats [1] = test: Pilot prenatal developmental toxicity study in Sprague-Dawley rats (Example 1); format: in vivo, rat
From the text: A total of 52 Sprague-Dawley (SD) rats were used in this study.
Observations of the animals included cageside assessments (twice daily), evaluation of clinical signs (daily from GD 6 through 20), body weights (at arrival—GD 2 or 3—and GD 6, 9, 12, 15, 18, and 20), food consumption (GD 6-20), and anatomical pathology including a uterine examination. […] All fetuses were given an external examination.

Sprague-Dawley rats [2] = test: Embryo-fetal developmental toxicity study in Sprague-Dawley rats (Example 3)
Procedure: For this study, a total of 140 time-mated female rats (approximately 8 to 10 weeks of age) were obtained from Charles River Laboratories, Raleigh, North Carolina, and acclimated from the time of arrival until the time of dosing on GD 6. During the acclimation period, the animals were observed twice daily with respect to general health and any signs of disease. All animals were given a detailed clinical examination and body weights were recorded prior to selection. […] Food consumption was collected during the acclimation period.
Animals received in-life and postmorten evaluations. […] All fetuses were given an external and visceral or skeletal examination.
Detailed clinical observations were made daily from GD 6 through 20 (4 hours±1 hour postdose on dosing days).
Food consumption for main study animals was measured and recorded on the corresponding body weight days and calculated for the same intervals.
The placentae were examined grossly.
The foci, if detected, were considered early resorptions, and data from this female were included in mean calculations

For `CC(C)NC(=O)COc1cccc(-c2nc(Nc3ccc4[nH]ncc4c3)c3ccccc3n2)c1` [belumosudil, 2-{3-[4-(1H-indazol-5-ylamino)-2-quinazolinyl]phenoxy}-N-(propan-2-yl) acetamide], the Mean post-implantation loss (Sprague-Dawley rats [1]; 25 mg base/kg/day) was 4.00 % per litter, the “Mean viable litter size” value (Sprague-Dawley rats [1]; 25 mg base/kg/day) was 13.2 and the “combined mean fetal body weight (males and females)” value (from here on “combined mean fetal body weight”) (Sprague-Dawley rats [1]; 25 mg base/kg/day) was 4.37 g. For the same molecule, the “mean fetal body weight (female fetuses)” value (Sprague-Dawley rats [1]; 25 mg base/kg/day) was 4.19 g, the Mean post-implantation loss (Sprague-Dawley rats [1]; 50 mg base/kg/day) was 11.62 % per litter and the “Mean viable litter size” value (Sprague-Dawley rats [1]; 50 mg base/kg/day) was 11.6. The “combined mean fetal body weight” value (Sprague-Dawley rats [1]; 50 mg base/kg/day) was 4.50 g, the “litter incidence of external fetal malformations” value (shortened to “litter incidence”) (Sprague-Dawley rats [1]; 50 mg base/kg/day) was 40% and the “mean fetal body weight (female fetuses)” value (Sprague-Dawley rats [1]; 50 mg base/kg/day) was 4.39 g. For the same molecule, the Mean post-implantation loss (Sprague-Dawley rats [1]; 150 mg base/kg/day) was 4.51 % per litter, the “Mean viable litter size” value (Sprague-Dawley rats [1]; 150 mg base/kg/day) was 12.2 and the “combined mean fetal body weight” value (Sprague-Dawley rats [1]; 150 mg base/kg/day) was 4.22 g. The “litter incidence” value (Sprague-Dawley rats [1]; 150 mg base/kg/day) was 20%, the maternal toxicity (Sprague-Dawley rats [1]; 150 mg base/kg/day) was “moderate” and the mean body weights (Sprague-Dawley rats [1]; 150 mg base/kg/day) was “reduced throughout gestation”. For the same molecule, the “mean fetal body weight (female fetuses)” value (Sprague-Dawley rats [1]; 150 mg base/kg/day) was 4.18 g, the Mean post-implantation loss (Sprague-Dawley rats [1]; 300 mg base/kg/day) was 24.51 % per litter and the “Mean viable litter size” value (Sprague-Dawley rats [1]; 300 mg base/kg/day) was 10.0. For the same molecule, the clinical signs (Sprague-Dawley rats [1]; 300 mg base/kg/day) was “unkempt and/or thin appearance, and hunched posture”, the “combined mean fetal body weight” value (Sprague-Dawley rats [1]; 300 mg base/kg/day) was 3.42 g and the “litter incidence” value (Sprague-Dawley rats [1]; 300 mg base/kg/day) was 25%. For the same molecule, the “maternal, embryo, and fetal toxicity” value (Sprague-Dawley rats [1]; 300 mg base/kg/day) was “excessive”, the “mean body weight values, body weight gains and food consumption” value (Sprague-Dawley rats [1]; 300 mg base/kg/day) was “adversely affected at every interval” and the “mean fetal body weight (female fetuses)” value (Sprague-Dawley rats [1]; 300 mg base/kg/day) was 3.34 g. The maternal toxicity (Sprague-Dawley rats [1]; 25 and 50 mg base/kg/day) was “slight”, the “mean body weight gains and food consumption” value (Sprague-Dawley rats [1]; 25 and 50 mg base/kg/day, GD 6-9, 6-18, 6-20) was “slightly reduced” and the maternal necropsy findings (Sprague-Dawley rats [1]; any treated group) was “No adverse maternal necropsy findings”. The “doses at which fetal malformations were observed (absence of anus and tail, omphalocele, dome shaped head)” value (Sprague-Dawley rats [1]; pilot study, pregnant rats, oral) was ≥ 50 mg/kg/day, the “Maternal Body Weight Change GD 6-9” value (Sprague-Dawley rats [2]; 15 mg base/kg/day) was 10.0 g and the “Maternal Body Weight Change GD 6-18” value (Sprague-Dawley rats [2]; 15 mg base/kg/day) was 93.8 g. For the same molecule, the “Maternal Body Weight Change GD 6-20” value (Sprague-Dawley rats [2]; 15 mg base/kg/day) was 127.9 g, the “Maternal Body Weight Change GD 18-20” value (Sprague-Dawley rats [2]; 15 mg base/kg/day) was 34.0 g and the “Maternal Body Weight GD 9” value (Sprague-Dawley rats [2]; 15 mg base/kg/day) was 231.7 g. For the same molecule, the “Maternal Body Weight GD 12” value (Sprague-Dawley rats [2]; 15 mg base/kg/day) was 257.0 g, the “Maternal Body Weight GD 15” value (Sprague-Dawley rats [2]; 15 mg base/kg/day) was 272.8 g and the “Maternal Body Weight GD 18” value (Sprague-Dawley rats [2]; 15 mg base/kg/day) was 315.5 g. For the same molecule, the “Maternal Body Weight GD 20” value (Sprague-Dawley rats [2]; 15 mg base/kg/day) was 349.6 g, the “Maternal Food Consumption GD 6-9” value (Sprague-Dawley rats [2]; 15 mg base/kg/day) was 19.0 and the “Maternal Food Consumption GD 6-18” value (Sprague-Dawley rats [2]; 15 mg base/kg/day) was 22.6. For the same molecule, the “Maternal Food Consumption GD 6-20” value (Sprague-Dawley rats [2]; 15 mg base/kg/day) was 23.2, the “Maternal Food Consumption GD 18-20” value (Sprague-Dawley rats [2]; 15 mg base/kg/day) was 27.3 and the “Mean Fetal Body Weight Females” value (Sprague-Dawley rats [2]; 15 mg base/kg/day) was 4.00 g. The “Mean Fetal Body Weight Genders Combined” value (Sprague-Dawley rats [2]; 15 mg base/kg/day) was 4.10 g, the “Mean Fetal Body Weight Males” value (Sprague-Dawley rats [2]; 15 mg base/kg/day) was 4.19 g and the “Adjusted Final Body Weight, Mean” value (Sprague-Dawley rats [2]; 15 mg base/kg/day (N = 25)) was 278.5 g. The “Adjusted Weight Change From Day 6, Mean” value (Sprague-Dawley rats [2]; 15 mg base/kg/day (N = 25)) was 56.8, the “Final Body Weight, Mean” value (Sprague-Dawley rats [2]; 15 mg base/kg/day (N = 25)) was 349.6 g and the “Gravid Uterine Weight, Mean” value (Sprague-Dawley rats [2]; 15 mg base/kg/day (N = 25)) was 71.0 g. For the same molecule, the “Discharge, Brown, Vulva, times observed/animals” value (Sprague-Dawley rats [2]; 15 mg base/kg/day, GD 6-20) was 1/1, the “Discharge, Red, Vulva, times observed/animals” value (Sprague-Dawley rats [2]; 15 mg base/kg/day, GD 6-20) was 0/0 and the “Ear/portion of ear missing, Ear/left, times observed/animals” value (Sprague-Dawley rats [2]; 15 mg base/kg/day, GD 6-20) was 13/1. For the same molecule, the “Hair sparse, Abdominal region, times observed/animals” value (Sprague-Dawley rats [2]; 15 mg base/kg/day, GD 6-20) was 7/1, the “Hair sparse, Cervical region, times observed/animals” value (Sprague-Dawley rats [2]; 15 mg base/kg/day, GD 6-20) was 0/0 and the “Hair sparse, Forefoot/left, times observed/animals” value (Sprague-Dawley rats [2]; 15 mg base/kg/day, GD 6-20) was 4/2. The “Hair sparse, Forefoot/right, times observed/animals” value (Sprague-Dawley rats [2]; 15 mg base/kg/day, GD 6-20) was 0/0, the “Hair sparse, Forelimb/left, times observed/animals” value (Sprague-Dawley rats [2]; 15 mg base/kg/day, GD 6-20) was 12/3 and the “Hair sparse, Forelimb/right, times observed/animals” value (Sprague-Dawley rats [2]; 15 mg base/kg/day, GD 6-20) was 17/3. For the same molecule, the “Hair sparse, Hind limb/left, times observed/animals” value (Sprague-Dawley rats [2]; 15 mg base/kg/day, GD 6-20) was 0/0, the “Hair sparse, Hind limb/right, times observed/animals” value (Sprague-Dawley rats [2]; 15 mg base/kg/day, GD 6-20) was 0/0 and the “Hair sparse, Lumbar region, times observed/animals” value (Sprague-Dawley rats [2]; 15 mg base/kg/day, GD 6-20) was 0/0. For the same molecule, the “Hair sparse, Thoracic region, times observed/animals” value (Sprague-Dawley rats [2]; 15 mg base/kg/day, GD 6-20) was 0/0, the “Scabbed area, Face, times observed/animals” value (Sprague-Dawley rats [2]; 15 mg base/kg/day, GD 6-20) was 7/1 and the “Scabbed area, Forelimb/right, times observed/animals” value (Sprague-Dawley rats [2]; 15 mg base/kg/day, GD 6-20) was 4/1. For the same molecule, the “Scabbed area, Tail, times observed/animals” value (Sprague-Dawley rats [2]; 15 mg base/kg/day, GD 6-20) was 0/0, the “Scabbed area, Thoracic region, times observed/animals” value (Sprague-Dawley rats [2]; 15 mg base/kg/day, GD 6-20) was 1/1 and the “Tail missing - portion, times observed/animals” value (Sprague-Dawley rats [2]; 15 mg base/kg/day, GD 6-20) was 0/0. For the same molecule, the “Maternal Body Weight Change GD 6-9” value (Sprague-Dawley rats [2]; 50 mg base/kg/day) was 6.2^b g, the “Maternal Body Weight Change GD 6-18” value (Sprague-Dawley rats [2]; 50 mg base/kg/day) was 78.8^b g and the “Maternal Body Weight Change GD 6-20” value (Sprague-Dawley rats [2]; 50 mg base/kg/day) was 115.9^b g. The “Maternal Body Weight Change GD 18-20” value (Sprague-Dawley rats [2]; 50 mg base/kg/day) was 37.1 g, the “Maternal Body Weight GD 9” value (Sprague-Dawley rats [2]; 50 mg base/kg/day) was 225.5^a g and the “Maternal Body Weight GD 12” value (Sprague-Dawley rats [2]; 50 mg base/kg/day) was 246.3^b g. For the same molecule, the “Maternal Body Weight GD 15” value (Sprague-Dawley rats [2]; 50 mg base/kg/day) was 262.6^b g and the “Maternal Body Weight GD 18” value (Sprague-Dawley rats [2]; 50 mg base/kg/day) was 298.1^b g.
